In data set [1] the target is 5-HT7A (Homo sapiens, UniProt P34969). Put plainly: PDSP radioligand displacement binding. The conditions noted are these: average of three independent trials. For orientation: In a radioligand displacement assay an active substance lowers the binding of a labelled ligand.
Data set [2] addresses T1, Alpha2B (Homo sapiens, UniProt P18089).
T1 sequence (P18089 1-450): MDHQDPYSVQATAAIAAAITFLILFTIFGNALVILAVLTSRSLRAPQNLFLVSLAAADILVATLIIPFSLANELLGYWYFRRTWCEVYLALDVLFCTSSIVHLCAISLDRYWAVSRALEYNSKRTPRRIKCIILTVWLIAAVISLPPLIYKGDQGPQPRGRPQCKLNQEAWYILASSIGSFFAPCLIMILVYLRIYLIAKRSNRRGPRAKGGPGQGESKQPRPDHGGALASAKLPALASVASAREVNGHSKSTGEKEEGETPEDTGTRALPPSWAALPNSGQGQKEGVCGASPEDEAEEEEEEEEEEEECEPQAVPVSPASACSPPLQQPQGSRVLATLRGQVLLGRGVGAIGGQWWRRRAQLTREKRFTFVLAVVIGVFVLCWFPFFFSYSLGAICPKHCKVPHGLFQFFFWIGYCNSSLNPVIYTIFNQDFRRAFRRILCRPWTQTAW
Put plainly: PDSP radioligand displacement binding. Conditions: average of three independent trials.

Data set [3] concerns the target T2, Alpha1B (Homo sapiens, UniProt P35368).
T2 sequence (P35368 1-520): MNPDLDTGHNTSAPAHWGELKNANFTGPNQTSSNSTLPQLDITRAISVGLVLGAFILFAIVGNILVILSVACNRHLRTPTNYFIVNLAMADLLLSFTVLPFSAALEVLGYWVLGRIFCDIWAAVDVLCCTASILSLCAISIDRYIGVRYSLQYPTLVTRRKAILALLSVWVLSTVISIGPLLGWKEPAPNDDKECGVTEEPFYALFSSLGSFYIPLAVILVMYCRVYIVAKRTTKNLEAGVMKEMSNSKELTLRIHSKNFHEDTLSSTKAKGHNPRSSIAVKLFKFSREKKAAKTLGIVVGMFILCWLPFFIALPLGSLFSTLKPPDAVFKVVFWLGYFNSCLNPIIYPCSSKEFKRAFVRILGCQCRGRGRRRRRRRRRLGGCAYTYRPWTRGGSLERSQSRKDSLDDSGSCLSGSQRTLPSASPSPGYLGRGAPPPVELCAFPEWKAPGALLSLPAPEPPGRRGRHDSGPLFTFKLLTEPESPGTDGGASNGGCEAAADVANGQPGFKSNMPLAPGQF
Put plainly: PDSP radioligand displacement binding. Conditions: average of three independent trials.

Data set [4] deals with Alpha7 (Homo sapiens, UniProt P36544). Nature of the data set: PDSP radioligand displacement binding. The conditions noted are these: average of three independent trials.
The target in data set [5] is T3, Alpha2A (Homo sapiens, UniProt P08913).
T3 sequence (P08913 1-465): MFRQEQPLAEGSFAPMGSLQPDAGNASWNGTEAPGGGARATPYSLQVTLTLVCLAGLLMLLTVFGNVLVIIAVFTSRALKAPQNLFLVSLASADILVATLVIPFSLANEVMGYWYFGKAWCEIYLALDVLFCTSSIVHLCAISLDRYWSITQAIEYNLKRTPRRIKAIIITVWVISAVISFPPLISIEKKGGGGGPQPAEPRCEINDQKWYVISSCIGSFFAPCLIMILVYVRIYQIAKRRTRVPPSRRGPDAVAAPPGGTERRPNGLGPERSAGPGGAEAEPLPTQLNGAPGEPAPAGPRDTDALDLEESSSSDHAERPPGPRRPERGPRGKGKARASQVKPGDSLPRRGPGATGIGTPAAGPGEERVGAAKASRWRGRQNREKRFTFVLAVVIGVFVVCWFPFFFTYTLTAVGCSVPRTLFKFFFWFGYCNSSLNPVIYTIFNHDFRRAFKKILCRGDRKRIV
Nature of the data set: PDSP radioligand displacement binding. The conditions noted are these: average of three independent trials.

The target in data set [6] is HERG (Homo sapiens, UniProt Q12809). Nature of the data set: PDSP radioligand displacement binding. Conditions: average of three independent trials.
Data set [7] addresses 5-HT5A (Homo sapiens, UniProt P47898). Nature of the data set: PDSP radioligand displacement binding. The conditions noted are these: average of three independent trials.
Data set [8] addresses Sigma 2. Nature of the data set: PDSP radioligand displacement binding. The conditions noted are these: average of three independent trials.
In data set [9] the target is CXCR7 (Homo sapiens, UniProt P25106). Put plainly: CXCR7 agonism follow-up of the PRESTO-Tango screen. Conditions: weak agonist compared to the CXCR7 agonist VUF11207. It is filed as cell-based.
Data set [10] has as its target T4, κOR (Homo sapiens, UniProt P41145).
T4 construct: host or cells: CHO-K1
Put plainly: Competitive radioligand binding with [3H]U69,593. Conditions: radioligand displacement assay.

Data set [11] concerns the target T5, μOR (Homo sapiens, UniProt P35372).
T5 construct: host or cells: CHO-K1
Put plainly: Competitive radioligand binding with [3H]DAMGO. Conditions: radioligand displacement assay.

Data set [12] concerns the target T4, κOR. Put plainly: cell-based. It is filed as cell-based.
Data set [13] addresses KOR (Homo sapiens, UniProt P41145). Nature of the data set: PDSP radioligand displacement binding. The conditions noted are these: average of three independent trials.

Molecules are shown by their SMILES.

The Ki is the equilibrium dissociation constant of an inhibitor or competing ligand from its target. Low readings indicate higher affinity, high ones lower affinity. With `C/C=C1/CN2CC[C@]34C(=C(C(=O)OC)[C@H]1C[C@H]23)Nc1ccc(Br)cc14` [Compound 2, 10-Bromoakuammicine], the Ki in data set [1] is 1520 nM; in [2], 1250 nM; in [3], 2880 nM; in data set [4], 7000 nM; in [5] it was more than 10000 nM; in data set [6], 1340 nM. Further, the Ki in data set [7] was 721 nM; in [8] it was 2620 nM.

The EC50 is the midpoint of the concentration-response curve. Consider `C/C=C1/CN2CC[C@]34C(=C(C(=O)OC)[C@H]1C[C@H]23)Nc1ccc(I)cc14` [Compound 3, 10-Iodoakuammicine], for which the Ki in data set [1] is 1380 nM; in [3] it was 2020 nM; in [4], 5490 nM; in data set [10], 0.087 nM; in data set [5], 732 nM; in data set [6] it was 1100 nM. The Ki turned out to be 829 nM in data set [7], 3600 nM in [11], 2220 nM in [8] and 1 nM in [13]. Moreover, the “Ki (nM) at Alpha2B” value in data set [2] is reported as “— (“—” indicates compound produced less than 50% displacement of radioligand in primary binding screen at 10 μM.)”. Further, the “concentration at which CXCR7 is activated” value in data set [9] was more than 3 µM. The “κOR cAMP inhibition pEC50 ± SEM” value in data set [12] is 8.2 ± 0.1. The EC50 in data set [12] (read-out: κOR cAMP inhibition EC50) is 5.7 nM.

Values taken from patent US20250051332A1 (priority 2022, published 2025).
